Source: US5284829A, “Synthetic tetrapeptides for the prevention of schistosome parasite infection” (priority 1991, dated 1994)
Where a SMILES comes first, the peptide text is derived from it. [ ]: non-standard residue; d: D form. The star is where a group is joined. pNA = O=[N+]([O-])c1ccc(N*)cc1; AMC = Cc1cc(=O)oc2cc(N*)ccc12; MeOSuc = COC(=O)CCC(=O)*; Nle = CCCC[C@H](N)C(=O)O; SBn = c1ccc(CS*)cc1; CH2Cl = ClC*

Experiments:
[1] = tested on: cercariae of Schistosoma mansoni (Puerto Rican strain); type: cell-based; settings: 50 micromolar
Description: A modification of the assay developed by Clegg and Smithers (Clegg & Smithers, 1972. Int. J. Parasitol. 2, 79-98.) was used. Two Plexiglass chambers were manufactured which could be screwed together to hold a 25×25 mm section of skin at the interface of the two chambers. Human skin was obtained from autopsy (6-12 hours following death) or from amputation specimens received at the Department of Surgical Pathology, UCSF. The chamber below the skin was filled with tissue culture medium (DME H16) prewarmed to 37° C. After the skin was clamped, the upper chamber was filled with water containing 9000 cercariae of Schistosoma mansoni (Puerto Rican strain). Cercariae will follow a thermal gradient, and they are stimulated by the lipid on the surface of skin to invade (Stirewalt, 1974. Adv. Parasitol. 12, 115-180). After one hour exposure to cercariae the skin was removed, fixed in 10% phosphate buffered formalin for 24 h, and sectioned at 2 mm intervals. Following dehydration and routine paraffin embedding, 5μ sections were cut by microtome and stained with hemotoxylin and eosin. The number of cercariae which had invaded epidermis or dermis was counted in each section. Percent inhibition of invasion was calculated as [formula] All assays were done in triplicate and standard deviation of the mean calculated. […]

cercarial protease [2] = biological target: T1, cercarial protease (Schistosoma mansoni, UniProt P12546); type: biochemical; settings: for substrate hydrolysis activity (in words): very low activity = absorbance change less than 0.001 O.D. in 40 min with 1.5 mM substrate; for Km: substrate hydrolysis, 100 mM glycine/NaOH, 2 mM CaCl2, pH 9.0, Lineweaver-Burk
T1 construct: Serine protease was isolated from the acetabular glands of cercariae as described previously in McKerrow et al., 1985; from tissue; host or cells: acetabular glands of cercariae
Description: Serine protease was isolated from the acetabular glands of cercariae as described previously in McKerrow et al., 1985. J. Biol. Chem. 260, 3703-3707. All tetrapeptide thioester (Sbzl) substrates with the exception of MeO-Suc-Ala-Ala-Pro-Lys-Sbzl (a gift from Dr. James C. Powers, School of Chemistry, Georgia Institute of Technology, Atlanta, Ga.) were purchased from Enzyme System Products (Dublin, Calif.). Stock solutions (25 mM) of all substrates were prepared in dimethyl sulfoxide (DMSO). Rates of hydrolysis of substrates were measured by adding 1-10 μl of substrate and 25 μl of 1 mM 4,4'-dithiodipyridine in DMSO to buffer (100 mM glycine/NaOH, 2 mM CaCl2, pH 9.0) to give a total volume of 1.0 ml. A 10 μl enzyme sample was added to start the reaction. The increase in the absorbance at 325 nm was followed on a Gilford spectrophotometer. An ε value of 19,800 was used for the thiopyridine production.
Assays of paranitroanilide (pNA) and 7-amino-4-methyl coumarin (AMC) derivatized peptides were carried out as described in McKerrow et al., 1985. J. Biol. Chem. 260, 3703-3707. MeO-Suc-Ala-Ala-Pro-Phe-pNA was from Vega Biochemicals, Tucson, Az. MeO-Suc-Ala-Ala-Pro-Leu-pNA was a gift of Dr. David Agard, Department of Biochemistry, UCSF. All other pNA substrates were a gift of Dr. Corey Largman, Veterans Administration Hospital, Martinez, Calif. All AMC substrates were from Enzyme Systems Products, Dublin, Calif.
For each peptide substrate, the substrate concentration range was varied over ten-fold. The kinetic constants were determined from the initial rates of product formation using a least squares analysis according to method of Lineweaver-Burk (Lineweaver, H. & Burk, D. 1934. J. Am. Chem. Soc. 56, 658).

Cercarial Proteinase = Cercarial Proteinase (Schistosoma mansoni, UniProt P12546); assay: biochemical
Description: The chloromethyl ketone-derivatized peptide inhibitors were designed by us based on our computer model, and synthesized for us by Enzyme System Products (Dublin, Calif.). Stock solutions of inhibitors (25 mM) were prepared in dimethyl sulfoxide (DMSO). The rate of irreversible inactivation of the protease was followed by withdrawing a 25 μl sample at 4 time intervals after mixing 125 μl of enzyme with 5 μl of inhibitor. […] B. 1962. J. Biol. Chem. 237, 3245) using MeO-Suc-Ala-Ala-Pro-Phe-Sbzl (Sbzl, benzyl thioester) as substrate. Inactivation constants for the boronic acid-derivatized peptides (MeO-Suc-Ala-Ala-Pro (D or L) boro-Phe-OH, a gift from Dr. Charles Kettner, E. I. Dupont de Nemours, Wilmington, Del.) were calculated using MeO-Suc-Ala-Ala-Pro-Phe-Sbzl as the substrate at 125 and 250 μM. Five different concentrations of each inhibitor were used per substrate concentration. The data were plotted according to Dixon and kinactivation values were extrapolated from the graph (Dixon, 1953. Biochem. J. 55, 170-171).
Therefore a boronic acid derivatized peptide analogous to the chloromethyl ketone derivatized Ala-Ala-Pro-Phe sequence was also tested. […] Stereoisomers of the same peptide were also evaluated.

cercarial protease [3] = biological target: T1, cercarial protease; assay: biochemical
Description: The chloromethyl ketone-derivatized peptide inhibitors were designed by us based on our computer model, and synthesized for us by Enzyme System Products (Dublin, Calif.). Stock solutions of inhibitors (25 mM) were prepared in dimethyl sulfoxide (DMSO). The rate of irreversible inactivation of the protease was followed by withdrawing a 25 μl sample at 4 time intervals after mixing 125 μl of enzyme with 5 μl of inhibitor. Kitz and Wilson's methods of analysis were used for calculation of Ki, k3, and k3 /Ki (Kitz R. & Wilson, I. B. 1962. J. Biol. Chem. 237, 3245) using MeO-Suc-Ala-Ala-Pro-Phe-Sbzl (Sbzl, benzyl thioester) as substrate. Inactivation constants for the boronic acid-derivatized peptides (MeO-Suc-Ala-Ala-Pro (D or L) boro-Phe-OH, a gift from Dr. Charles Kettner, E. I. Dupont de Nemours, Wilmington, Del.) were calculated using MeO-Suc-Ala-Ala-Pro-Phe-Sbzl as the substrate at 125 and 250 μM. Five different concentrations of each inhibitor were used per substrate concentration. The data were plotted according to Dixon and kinactivation values were extrapolated from the graph (Dixon, 1953. Biochem. J. 55, 170-171).

T1 sequence (P12546 28-264): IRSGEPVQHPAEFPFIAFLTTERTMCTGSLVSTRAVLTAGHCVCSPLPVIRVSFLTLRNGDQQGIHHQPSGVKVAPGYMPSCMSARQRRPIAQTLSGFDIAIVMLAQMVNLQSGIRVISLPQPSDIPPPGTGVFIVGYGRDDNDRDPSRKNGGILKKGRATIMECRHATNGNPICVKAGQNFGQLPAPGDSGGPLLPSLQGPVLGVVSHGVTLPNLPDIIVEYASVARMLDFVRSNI
Sequence of Cercarial Proteinase (P12546 28-264): as above

## COC(=O)CCC(=O)N[C@@H](C)C(=O)N[C@@H](C)C(=O)N1CCC[C@H]1C(=O)N[C@H](Cc1ccccc1)B(O)O [MeO-Suc-Ala-Ala-Pro-(D)boro-Phe-OH]
[1]
  cercariae inhibited from invading skin: less than 20%

## COC(=O)CCC(=O)N[C@@H](C)C(=O)N[C@@H](C)C(=O)N1CCC[C@H]1C(=O)N[C@@H](Cc1ccccc1)B(O)O [MeO-Suc-Ala-Ala-Pro-(L)boro-Phe-OH]
[1]
  cercariae inhibited from invading skin: 50%

## COC(=O)CCC(=O)N[C@@H](C)C(=O)N[C@@H](C)C(=O)N1CCC[C@H]1C(=O)N[C@@H](C)C(=O)Nc1ccc2c(C)cc(=O)oc2c1 [MeO-Suc-Ala-Ala-Pro-Ala-AMC] (MeOSuc-AAPA-{AMC})
Cercarial protease [2]
  substrate hydrolysis activity (in words): no activity

## COC(=O)CCC(=O)N[C@@H](C)C(=O)N[C@@H](C)C(=O)N1CCC[C@H]1C(=O)N[C@@H](C)C(=O)CCl [MeO-Suc-Ala-Ala-Pro-Ala-CMK] (MeOSuc-AAPA-CH2Cl)
Cercarial Proteinase
  IC50: > 100 µM

## COC(=O)CCC(=O)N[C@@H](C)C(=O)N[C@@H](C)C(=O)N1CCC[C@H]1C(=O)N[C@@H](C)C(=O)SCc1ccccc1 [MeO-Suc-Ala-Ala-Pro-Ala-Sbzl] (MeOSuc-AAPA-SBn)
Cercarial protease [2]
  substrate hydrolysis activity (in words): no activity

## COC(=O)CCC(=O)N[C@@H](C)C(=O)N[C@@H](C)C(=O)N1CCC[C@H]1C(=O)N[C@@H](CC(C)C)C(=O)CCl [MeO-Suc-Ala-Ala-Pro-Leu-CMK] (MeOSuc-AAPL-CH2Cl)
Cercarial protease [3]
  Ki: 12 µM
Cercarial Proteinase
  IC50: 0.036 µM

## COC(=O)CCC(=O)N[C@@H](C)C(=O)N[C@@H](C)C(=O)N1CCC[C@H]1C(=O)N[C@@H](CC(C)C)C(=O)SCc1ccccc1 [MeO-Suc-Ala-Ala-Pro-Leu-Sbzl] (MeOSuc-AAPL-SBn)
Cercarial protease [2]
  Km: 464 µM

## COC(=O)CCC(=O)N[C@@H](C)C(=O)N[C@@H](C)C(=O)N1CCC[C@H]1C(=O)N[C@@H](CC(C)C)C(=O)Nc1ccc([N+](=O)[O-])cc1 [MeO-Suc-Ala-Ala-Pro-Leu-pNA] (MeOSuc-AAPL-pNA)
Cercarial protease [2]
  Km: 118 µM

## COC(=O)CCC(=O)N[C@@H](C)C(=O)N[C@@H](C)C(=O)N1CCC[C@H]1C(=O)N[C@@H](CCCCN)C(=O)SCc1ccccc1 [MeO-Suc-Ala-Ala-Pro-Lys-Sbzl] (MeOSuc-AAPK-SBn)
Cercarial protease [2]
  substrate hydrolysis activity (in words): no activity

## COC(=O)CCC(=O)N[C@@H](C)C(=O)N[C@@H](C)C(=O)N1CCC[C@H]1C(=O)N[C@@H](CCSC)C(=O)Nc1ccc([N+](=O)[O-])cc1 [MeO-Suc-Ala-Ala-Pro-Met-pNA] (MeOSuc-AAPM-pNA)
Cercarial protease [2]
  Km: 300 µM

## CCCC[C@H](NC(=O)[C@@H]1CCCN1C(=O)[C@H](C)NC(=O)[C@H](C)NC(=O)CCC(=O)OC)C(=O)Nc1ccc([N+](=O)[O-])cc1 [MeO-Suc-Ala-Ala-Pro-Nle-pNA] (MeOSuc-AAP[Nle]-pNA)
Cercarial protease [2]
  Km: 300 µM

## COC(=O)CCC(=O)N[C@@H](C)C(=O)N[C@@H](C)C(=O)N1CCC[C@H]1C(=O)N[C@@H](Cc1ccccc1)C(=O)CCl [MeO-Suc-Ala-Ala-Pro-Phe-CMK] (MeOSuc-AAPF-CH2Cl)
Cercarial protease [3]
  Ki: 13 µM
Cercarial Proteinase
  IC50: 0.088 µM

## COC(=O)CCC(=O)N[C@@H](C)C(=O)N[C@@H](C)C(=O)N1CCC[C@H]1C(=O)N[C@@H](Cc1ccccc1)C(=O)SCc1ccccc1 [MeO-Suc-Ala-Ala-Pro-Phe-Sbzl] (MeOSuc-AAPF-SBn)
Cercarial protease [2]
  Km: 96 µM

## COC(=O)CCC(=O)N[C@@H](C)C(=O)N[C@@H](C)C(=O)N1CCC[C@H]1C(=O)N[C@@H](Cc1ccccc1)C(=O)Nc1ccc([N+](=O)[O-])cc1 [MeO-Suc-Ala-Ala-Pro-Phe-pNA] (MeOSuc-AAPF-pNA)
Cercarial protease [2]
  Km: 119 µM

## COC(=O)CCC(=O)N[C@@H](C)C(=O)N[C@@H](C)C(=O)N1CCC[C@H]1C(=O)N[C@@H](Cc1c[nH]c2ccccc12)C(=O)CCl [MeO-Suc-Ala-Ala-Pro-Trp-CMK] (MeOSuc-AAPW-CH2Cl)
Cercarial protease [3]
  Ki: 20 µM

## COC(=O)CCC(=O)N[C@@H](C)C(=O)N[C@@H](C)C(=O)N1CCC[C@H]1C(=O)N[C@H](C(=O)Nc1ccc2c(C)cc(=O)oc2c1)C(C)C [MeO-Suc-Ala-Ala-Pro-Val-AMC] (MeOSuc-AAPV-{AMC})
Cercarial protease [2]
  substrate hydrolysis activity (in words): no activity

## COC(=O)CCC(=O)N[C@@H](C)C(=O)N[C@@H](CCCCN)C(=O)N1CCC[C@H]1C(=O)N[C@@H](Cc1ccccc1)C(=O)CCl [MeO-Suc-Ala-Lys-Pro-Phe-CMK]
Cercarial protease [3]
  Ki: 7 µM

## COC(=O)CCC(=O)N[C@@H](Cc1ccccc1)C(=O)N[C@@H](C)C(=O)N1CCC[C@H]1C(=O)N[C@@H](Cc1ccccc1)C(=O)CCl [MeO-Suc-Phe-Ala-Pro-Phe-CMK] (MeOSuc-FAPF-CH2Cl)
Cercarial protease [3]
  Ki: 1 µM

## COC(=O)CCC(=O)N[C@@H](Cc1ccccc1)C(=O)N[C@@H](C)C(=O)N1CCC[C@H]1C(=O)N[C@@H](Cc1ccccc1)C(=O)SCc1ccccc1 [MeO-Suc-Phe-Ala-Pro-Phe-Sbzl] (MeOSuc-FAPF-SBn)
Cercarial protease [2]
  Km: 244 µM

## COC(=O)CCC(=O)N[C@@H](Cc1c[nH]c2ccccc12)C(=O)N[C@@H](C)C(=O)N1CCC[C@H]1C(=O)N[C@@H](CC(C)C)C(=O)CCl [MeO-Suc-Trp-Ala-Pro-Leu-CMK] (MeOSuc-WAPL-CH2Cl)
Cercarial protease [3]
  Ki: 2 µM

## COC(=O)CCC(=O)N[C@@H](Cc1c[nH]c2ccccc12)C(=O)N[C@@H](C)C(=O)N1CCC[C@H]1C(=O)N[C@@H](Cc1ccccc1)C(=O)CCl [MeO-Suc-Trp-Ala-Pro-Phe-CMK] (MeOSuc-WAPF-CH2Cl)
Cercarial protease [3]
  Ki: 12 µM

## COC(=O)CCC(=O)N[C@@H](Cc1c[nH]c2ccccc12)C(=O)N[C@@H](C)C(=O)N1CCC[C@H]1C(=O)N[C@@H](Cc1ccccc1)C(=O)SCc1ccccc1 [MeO-Suc-Trp-Ala-Pro-Phe-Sbzl] (MeOSuc-WAPF-SBn)
Cercarial protease [2]
  substrate hydrolysis activity (in words): no activity
